Measurements published in US8952024B2, “Herbicidal pyrimidone derivatives” (E I du Pont de Nemours and Company, priority 2009, dated 2015).

Key:
Experiment in all cases: Test B pre-/postemergence plant response
Format in all cases: in vivo
soybean (Glycine max) = tested on: soybean (Glycine max)
Summary of the method: (§1)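 Steps: sow seed in loam–sand soil and spray preemergence, or grow plants in peat-based medium to 1–4 leaves (2–18 cm) and spray postemergence; formulation is non-phytotoxic solvent plus surfactant; hold in greenhouse 13–15 days; score visually vs controls, 0 = no effect, 100 = complete control.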

[1] = tested on: woolly cupgrass (Eriochloa villosa)
Summary of the method: as §1

[2] = tested on: velvetleaf (Abutilon theophrasti)
Summary of the method: as §1

[3] = tested on: yellow nutsedge (Cyperus esculentus)
Summary of the method: as §1

kochia (Kochia scoparia) = tested on: kochia (Kochia scoparia)
Summary of the method: as §1

[4] = tested on: bermudagrass (Cynodon dactylon)
Summary of the method: as §1

[5] = tested on: lambsquarters (Chenopodium album)
Summary of the method: as §1

[6] = tested on: large crabgrass (Digitaria sanguinalis)
Summary of the method: as §1

[7] = tested on: ragweed (common ragweed, Ambrosia elatior)
Summary of the method: as §1

[8] = tested on: goosegrass (Eleusine indica)
Summary of the method: as §1

[9] = tested on: wheat (Triticum aestivum)
Summary of the method: as §1

[10] = tested on: johnsongrass (Sorghum halepense)
Summary of the method: as §1

[11] = tested on: green foxtail (Setaria viridis)
Summary of the method: as §1

[12] = Postemergence, 250 g ai/ha, scale 0 to 100
[13] = 62 g ai/ha, postemergence, 0 is no effect, 100 is complete control, 13 to 15 days
[14] = Postemergence, 125 g ai/ha, scale 0 to 100 (0 no effect, 100 complete control)
[15] = Postemergence, 250 g ai/ha, scale 0 to 100 (0 no effect, 100 complete control)
[16] = 31 g ai/ha, postemergence, scale 0 to 100, 0 is no effect, 100 is complete control

COc1ccc(-n2c(-c3ccccc3)ncc(C(=O)C3=C(O)CCCC3=O)c2=O)cc1 [Compound 4, 5-[(2-hydroxy-6-oxo-cyclohexen-1-yl)carbonyl]-3-(4-methoxyphenyl)-2-phenyl-4(3H)-pyrimidinone]
plant injury at 31 g/ha (soybean (Glycine max); Glycine max, post-emergence, Postemergence, 31 g ai/ha, scale 0 to 100 (0 no effect, 100 complete control), read-out: Plant response rating, Soybean): 95% | plant injury at 62 g/ha (soybean (Glycine max); Glycine max, post-emergence, Postemergence, 62 g ai/ha, scale 0 (no effect) to 100 (complete control), 13 to 15 days, read-out: Plant response rating, Soybean): 100% | plant injury at 125 g/ha (soybean (Glycine max); Glycine max, post-emergence, Postemergence, 125 g ai/ha, visual rating after 13 to 15 days, scale 0 (no effect) to 100 (complete control)): 100% | Soybean plant response rating (soybean (Glycine max); [12]): 100 | pest or weed control at 31 g/ha ([1]; Eriochloa villosa, post-emergence, Postemergence, 31 g ai/ha, scale 0 to 100 (0 no effect, 100 complete control), read-out: Plant response rating, Cupgrass, Woolly): 75% | pest or weed control at 62 g/ha ([1]; Eriochloa villosa, post-emergence, Postemergence, 62 g ai/ha, scale 0 (no effect) to 100 (complete control), 13 to 15 days, read-out: Plant response rating, Cupgrass, Woolly): 95% | pest or weed control at 125 g/ha ([1]; Eriochloa villosa, post-emergence, Postemergence, 125 g ai/ha, visual rating after 13 to 15 days, scale 0 (no effect) to 100 (complete control)): 100% | Cupgrass, Woolly plant response rating [1, 12]: 100 | pest or weed control at 31 g/ha ([2]; Abutilon theophrasti, post-emergence, 360 h, Postemergence, 31 g ai/ha, scale 0 to 100 (0 no effect, 100 complete control), read-out: Plant response rating, Velvetleaf): 70% | pest or weed control at 62 g/ha ([2]; Abutilon theophrasti, post-emergence, 360 h, Postemergence, 62 g ai/ha, scale 0 (no effect) to 100 (complete control), 13 to 15 days, read-out: Plant response rating, Velvetleaf): 75% | pest or weed control at 125 g/ha ([2]; Abutilon theophrasti, post-emergence, 360 h, Postemergence, 125 g ai/ha, visual rating after 13 to 15 days, scale 0 (no effect) to 100 (complete control)): 90% | Velvetleaf plant response rating [2, 12]: 100 | pest or weed control at 31 g/ha ([3]; Cyperus, post-emergence, Postemergence, 31 g ai/ha, scale 0 to 100 (0 no effect, 100 complete control), read-out: Plant response rating, Nutsedge, Yellow): 55% | pest or weed control at 62 g/ha ([3]; Cyperus, post-emergence, Postemergence, 62 g ai/ha, scale 0 (no effect) to 100 (complete control), 13 to 15 days, read-out: Plant response rating, Nutsedge, Yellow): 65% | pest or weed control at 125 g/ha ([3]; Cyperus, post-emergence, Postemergence, 125 g ai/ha, visual rating after 13 to 15 days, scale 0 (no effect) to 100 (complete control)): 75% | Nutsedge, Yellow plant response rating [3, 12]: 80 | pest or weed control at 31 g/ha (kochia (Kochia scoparia); Bassia scoparia, post-emergence, Postemergence, 31 g ai/ha, scale 0 to 100 (0 no effect, 100 complete control), read-out: Plant response rating, Kochia): 80% | pest or weed control at 62 g/ha (kochia (Kochia scoparia); Bassia scoparia, post-emergence, Postemergence, 62 g ai/ha, scale 0 (no effect) to 100 (complete control), 13 to 15 days, read-out: Plant response rating, Kochia): 100% | pest or weed control at 125 g/ha (kochia (Kochia scoparia); Bassia scoparia, post-emergence, Postemergence, 125 g ai/ha, visual rating after 13 to 15 days, scale 0 (no effect) to 100 (complete control)): 100% | Kochia plant response rating (kochia (Kochia scoparia); [12]): 100 | pest or weed control at 31 g/ha ([4]; Cynodon dactylon, post-emergence, Postemergence, 31 g ai/ha, scale 0 to 100 (0 no effect, 100 complete control), read-out: Plant response rating, Bermudagrass): 15% | pest or weed control at 62 g/ha ([4]; Cynodon dactylon, post-emergence, Postemergence, 62 g ai/ha, scale 0 (no effect) to 100 (complete control), 13 to 15 days, read-out: Plant response rating, Bermudagrass): 85% | pest or weed control at 125 g/ha ([4]; Cynodon dactylon, post-emergence, Postemergence, 125 g ai/ha, scale 0 to 100 (0 no effect, 100 complete control), 13 to 15 days, read-out: Plant response rating, Bermudagrass): 85% | Bermudagrass plant response rating [4, 12]: 100 | pest or weed control at 31 g/ha ([5]; Chenopodium album, post-emergence, Postemergence, 31 g ai/ha, scale 0 to 100 (0 no effect, 100 complete control), read-out: Plant response rating, Lambsquarters): 98% | pest or weed control at 62 g/ha ([5]; Chenopodium album, post-emergence, Postemergence, 62 g ai/ha, scale 0 (no effect) to 100 (complete control), 13 to 15 days, read-out: Plant response rating, Lambsquarters): 100% | pest or weed control at 125 g/ha ([5]; Chenopodium album, post-emergence, Postemergence, 125 g ai/ha, visual rating after 13 to 15 days, scale 0 (no effect) to 100 (complete control)): 100% | Lambsquarters plant response rating [5, 12]: 100 | pest or weed control at 31 g/ha ([6]; Digitaria sanguinalis, post-emergence, Postemergence, 31 g ai/ha, scale 0 to 100 (0 no effect, 100 complete control), read-out: Plant response rating, Crabgrass, Large): 70% | pest or weed control at 62 g/ha ([6]; Digitaria sanguinalis, post-emergence, Postemergence, 62 g ai/ha, scale 0 (no effect) to 100 (complete control), 13 to 15 days, read-out: Plant response rating, Crabgrass, Large): 85% | pest or weed control at 125 g/ha ([6]; Digitaria sanguinalis, post-emergence, Postemergence, 125 g ai/ha, visual rating after 13 to 15 days, scale 0 (no effect) to 100 (complete control)): 100% | Crabgrass, Large plant response rating [6, 12]: 100 | pest or weed control at 31 g/ha ([7]; Ambrosia artemisiifolia, post-emergence, 360 h, Postemergence, 31 g ai/ha, scale 0 to 100 (0 no effect, 100 complete control), read-out: Plant response rating, Ragweed): 100% | pest or weed control at 62 g/ha ([7]; Ambrosia artemisiifolia, post-emergence, 360 h, Postemergence, 62 g ai/ha, scale 0 (no effect) to 100 (complete control), 13 to 15 days, read-out: Plant response rating, Ragweed): 100% | pest or weed control at 125 g/ha ([7]; Ambrosia artemisiifolia, post-emergence, 360 h, Postemergence, 125 g ai/ha, visual rating after 13 to 15 days, scale 0 (no effect) to 100 (complete control)): 100% | Ragweed plant response rating [7, 12]: 100 | pest or weed control at 31 g/ha ([8]; Eleusine indica, post-emergence, Postemergence, 31 g ai/ha, scale 0 to 100 (0 no effect, 100 complete control), read-out: Plant response rating, Goosegrass): 25% | pest or weed control at 62 g/ha ([8]; Eleusine indica, post-emergence, Postemergence, 62 g ai/ha, scale 0 (no effect) to 100 (complete control), 13 to 15 days, read-out: Plant response rating, Goosegrass): 75% | pest or weed control at 125 g/ha ([8]; Eleusine indica, post-emergence, Postemergence, 125 g ai/ha, visual rating after 13 to 15 days, scale 0 (no effect) to 100 (complete control)): 85% | Goosegrass plant response rating [8, 12]: 98 | Wheat plant response rating [9, 12]: 70 | plant injury at 31 g/ha ([9]; Triticum aestivum, post-emergence, Postemergence, 31 g ai/ha, scale 0 to 100 (0 no effect, 100 complete control), read-out: Plant response rating, Wheat): 5% | plant injury at 62 g/ha ([9]; Triticum aestivum, post-emergence, Postemergence, 62 g ai/ha, scale 0 (no effect) to 100 (complete control), 13 to 15 days, read-out: Plant response rating, Wheat): 5% | plant injury at 125 g/ha ([9]; Triticum aestivum, post-emergence, Postemergence, 125 g ai/ha, visual rating after 13 to 15 days, scale 0 (no effect) to 100 (complete control)): 50% | Johnsongrass plant response rating [10, 12]: 98 | pest or weed control at 31 g/ha ([10]; Sorghum halepense, post-emergence, Postemergence, 31 g ai/ha, scale 0 to 100 (0 no effect, 100 complete control), read-out: Plant response rating, Johnsongrass): 45% | pest or weed control at 62 g/ha ([10]; Sorghum halepense, post-emergence, Postemergence, 62 g ai/ha, scale 0 (no effect) to 100 (complete control), 13 to 15 days, read-out: Plant response rating, Johnsongrass): 80% | pest or weed control at 125 g/ha ([10]; Sorghum halepense, post-emergence, Postemergence, 125 g ai/ha, visual rating after 13 to 15 days, scale 0 (no effect) to 100 (complete control)): 95% | Foxtail, Green plant response rating [11, 12]: 60 | pest or weed control at 31 g/ha ([11]; Setaria viridis, post-emergence, Postemergence, 31 g ai/ha, scale 0 to 100 (0 no effect, 100 complete control), read-out: Plant response rating, Foxtail, Green): 40% | pest or weed control at 62 g/ha ([11]; Setaria viridis, post-emergence, Postemergence, 62 g ai/ha, scale 0 (no effect) to 100 (complete control), 13 to 15 days, read-out: Plant response rating, Foxtail, Green): 40% | pest or weed control at 125 g/ha ([11]; Setaria viridis, post-emergence, Postemergence, 125 g ai/ha, visual rating after 13 to 15 days, scale 0 (no effect) to 100 (complete control)): 60%

CCCCn1c(-c2cc(F)cc(F)c2)ncc(C(=O)C2=C(O)CCCC2=O)c1=O [Compound 121]
Soybean plant response rating (0 to 100 scale) (soybean (Glycine max); [13]): 90 | Plant response rating, Soybean (soybean (Glycine max); [14]): 95 | Plant response rating, Soybean (soybean (Glycine max); [15]): 100 | Plant response rating, Cupgrass, Woolly [1, 16]: 95 | Cupgrass, Woolly plant response rating (0 to 100 scale) [1, 13]: 100 | Plant response rating, Cupgrass, Woolly [1, 14]: 100 | Plant response rating, Cupgrass, Woolly [1, 15]: 100 | Velvetleaf plant response rating (0 to 100 scale) [2, 13]: 98 | Plant response rating, Velvetleaf [2, 14]: 100 | Plant response rating, Velvetleaf [2, 15]: 100 | Plant response rating, Nutsedge, Yellow [3, 16]: 5 | Nutsedge, Yellow plant response rating (0 to 100 scale) [3, 13]: 45 | Plant response rating, Nutsedge, Yellow [3, 14]: 45 | Plant response rating, Nutsedge, Yellow [3, 15]: 50 | Plant response rating, Kochia (kochia (Kochia scoparia); [16]): 95 | Kochia plant response rating (0 to 100 scale) (kochia (Kochia scoparia); [13]): 100 | Plant response rating, Kochia (kochia (Kochia scoparia); [15]): 100 | Plant response rating, Bermudagrass [4, 16]: 95 | Bermudagrass plant response rating (0 to 100 scale) [4, 13]: 98 | Plant response rating, Bermudagrass [4, 14]: 100 | Plant response rating, Bermudagrass [4, 15]: 100 | Plant response rating, Lambsquarters [5, 16]: 95 | Lambsquarters plant response rating (0 to 100 scale) [5, 13]: 100 | Plant response rating, Lambsquarters [5, 14]: 100 | Plant response rating, Lambsquarters [5, 15]: 100 | Plant response rating, Crabgrass, Large [6, 16]: 85 | Crabgrass, Large plant response rating (0 to 100 scale) [6, 13]: 90 | Plant response rating, Crabgrass, Large [6, 14]: 95 | Plant response rating, Crabgrass, Large [6, 15]: 98 | Ragweed plant response rating (0 to 100 scale) [7, 13]: 85 | Plant response rating, Ragweed [7, 14]: 90 | Plant response rating, Ragweed [7, 15]: 95 | Plant response rating, Goosegrass [8, 16]: 95 | Goosegrass plant response rating (0 to 100 scale) [8, 13]: 98 | Plant response rating, Goosegrass [8, 14]: 98 | Plant response rating, Goosegrass [8, 15]: 98 | Wheat plant response rating (0 to 100 scale) [9, 13]: 45 | Plant response rating, Wheat [9, 14]: 45 | Plant response rating, Johnsongrass [10, 16]: 20 | Johnsongrass plant response rating (0 to 100 scale) [10, 13]: 70 | Plant response rating, Johnsongrass [10, 15]: 85 | Plant response rating, Foxtail, Green [11, 16]: 80 | Foxtail, Green plant response rating (0 to 100 scale) [11, 13]: 90 | Plant response rating, Foxtail, Green [11, 14]: 100 | Plant response rating, Foxtail, Green [11, 15]: 100
